Measurements taken from publication PMC5376172, “Identification and use of an alkane transporter plug-in for applications in biocatalysis and whole-cell biosensing of alkanes” (Scientific Reports, 2014).

How the values were obtained:
AlkL = biological target: T1, AlkL (Ectopseudomonas oleovorans, UniProt Q00595); test: whole-cell alkane uptake by GC and coupled AlkB oxidation, with and without alkL; format: cell-based; details: transport into E. coli; 15 min incubation for direct uptake; whole cells
T1 construct: full-length, untagged, from pSTBFGL (palkB promoter) in E. coli DH1 / HB101 with AlkBFGT
T1 sequence (Q00595 28-230): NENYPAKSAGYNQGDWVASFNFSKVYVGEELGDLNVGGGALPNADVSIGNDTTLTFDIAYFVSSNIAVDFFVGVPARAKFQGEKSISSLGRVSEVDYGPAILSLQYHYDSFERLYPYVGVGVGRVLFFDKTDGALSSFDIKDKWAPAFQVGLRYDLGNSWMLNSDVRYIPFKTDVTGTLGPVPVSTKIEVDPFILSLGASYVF

[1] = biological target: T2, alkane hydroxylase complex (AlkB, AlkG, AlkT) (Ectopseudomonas oleovorans, UniProt P12691); test: whole-cell bio-oxidation, GC-FID of products; format: cell-based; details: E. coli DH1 / HB101 whole cells; DCPK inducer
T2 construct: integral membrane AlkB with electron transfer partners, co-expressed from pSTBFG(L) in whole E. coli cells; alkF also on plasmid; with Rubredoxin-2; Rubredoxin-NAD(+) reductase
T2 sequence (P12691 1-401): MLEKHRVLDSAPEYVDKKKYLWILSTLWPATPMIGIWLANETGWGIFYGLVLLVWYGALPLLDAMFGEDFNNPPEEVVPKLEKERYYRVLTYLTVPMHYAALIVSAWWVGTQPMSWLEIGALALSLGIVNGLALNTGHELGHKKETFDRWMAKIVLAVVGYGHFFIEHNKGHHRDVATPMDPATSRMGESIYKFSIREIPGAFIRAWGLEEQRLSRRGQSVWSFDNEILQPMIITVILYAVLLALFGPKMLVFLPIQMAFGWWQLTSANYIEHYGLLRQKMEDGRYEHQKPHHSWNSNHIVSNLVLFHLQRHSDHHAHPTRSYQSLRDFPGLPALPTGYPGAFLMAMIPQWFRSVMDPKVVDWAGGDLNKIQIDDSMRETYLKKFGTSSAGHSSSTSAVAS
T2 sequence (P00272 2-173 partner): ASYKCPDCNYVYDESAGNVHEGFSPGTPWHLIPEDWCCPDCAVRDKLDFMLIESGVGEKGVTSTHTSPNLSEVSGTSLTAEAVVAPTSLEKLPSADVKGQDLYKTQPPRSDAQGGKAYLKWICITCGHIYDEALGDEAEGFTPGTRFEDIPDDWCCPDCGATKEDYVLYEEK

Row | SMILES | whole-cell alkane uptake by GC and coupled AlkB oxidation, with and without alkL (AlkL) | whole-cell bio-oxidation, GC-FID of products [1]
1 | CCCCCCCCCCCC [n-dodecane] | E.coli strains expressing alkL were also tested for a direct measurement of n-dodecane uptake | –
2 | CCCCCCCC [n-octane] | – | Oxidised products of n-octane were detected in all host cells containing either pSTBFG or pSTBFGL
